# Experimental data from US20260102359A1, “COMBINATION TREATMENT OF DERMAL AND TRANSDERMAL FIBROTIC DISEASES, DISORDERS AND ASSOCIATED PAIN AND INFLAMMATION” (ERESINA, LLC, priority 2022, published 2026).
# Structures can show the parent of a compound that is named as a salt.
# Tested on: hDMFa myofibroblast cells
row,Compound,Compound Myofibroblast Cytotoxicity Activity
1,"CC1=CCC2CC1C2(C)C (racemic) [Cmpd 18, (±)-α-Pinene]",++
2,"CC[C@]1(O)C[C@H]2CN(CCc3c([nH]c4ccccc34)[C@@](C(=O)OC)(c3cc4c(cc3OC)N(C=O)[C@H]3[C@@](O)(C(=O)OC)[C@H](OC(C)=O)[C@]5(CC)C=CCN6CC[C@]43[C@@H]65)C2)C1 [Cmpd 1004, Vincristine sulfate]",+++
3,"N[C@@H](Cc1c[nH]cn1)C(=O)O [Cmpd 586, L-Histidine]",+
4,"C/C=C/c1cc(OC)c(OC)cc1OC [Cmpd 3, α-Asarone]",++
5,"CO[C@@H]1[C@@H](OC(N)=O)[C@@H](O)[C@H](Oc2ccc3c(O)c(NC(=O)c4ccc(O)c(CC=C(C)C)c4)c(=O)oc3c2C)OC1(C)C [Cmpd 724, Novobiocin Sodium]",++++
6,"O=C(O)c1ccncc1 [Cmpd 537, Isonicotinic acid]",++++
7,"Oc1ccc(C=Cc2cc(O)cc(O)c2)cc1 [Cmpd 829, Resveratrol]",++
8,"Nc1ccc(S(=O)(=O)Nc2nccs2)cc1 [Cmpd 900, Sulfathiazole]",++++
9,"N[C@@H](CSCCCO)C(=O)O [Cmpd 473, Fudosteine]",++++
10,"N=C(N)NC(=O)c1nc(Cl)c(N)nc1N [Cmpd 105, Amiloride HCl dihydrate]",++
11,Icatibant Acetate [Cmpd 514],++
12,"COc1ccc2cc1Oc1ccc(cc1)C[C@H]1c3cc(c(OC)cc3CCN1C)Oc1c(OC)c(OC)cc3c1[C@H](C2)N(C)CC3 [Cmpd 936, Tetrandrine]",++
13,"C1=N/C2=N/c3ccc(OCCN4CCCC4)c(c3)COC/C=C/COCc3cccc(c3)C(=C1)N2 [Cmpd 751, Pacritinib (SB1518)]",+++
14,"CC(=O)[C@]1(O)Cc2c(O)c3c(c(O)c2[C@@H](O[C@H]2C[C@H](N)[C@H](O)[C@H](C)O2)C1)C(=O)c1ccccc1C3=O [Cmpd 515, Idarubicin HCl]",+++++
15,"C[C@H]1O[C@@H](n2cc(F)c(=O)[nH]c2=O)[C@H](O)[C@@H]1O [Cmpd 387, Doxifluridine]",++++
16,"CCc1c(Cl)c(O)c(Cl)c(O)c1C(=O)O[C@H]1[C@H](O)[C@H](OC)[C@H](OC/C2=C\C=C\C[C@H](O)/C(C)=C/[C@H](CC)[C@@H](O[C@@H]3OC(C)(C)[C@@H](OC(=O)C(C)C)[C@H](O)[C@@H]3O)/C(C)=C/C(C)=C/C[C@@H]([C@@H](C)O)OC2=O)O[C@@H]1C [Cmpd 454, Fidaxomicin]",+++++
17,"Nc1ccc(S(N)(=O)=O)cc1 [Cmpd 898, Sulfanilamide]",++++
18,"Cl.NCCCC(N)(C(=O)O)C(F)F (racemic) [Cmpd 371, DL-α-Difluoromethylornithine (hydrochloride hydrate)]",++
19,"N=C(N/N=C/c1ccc(Cl)cc1)N/N=C/c1ccc(Cl)cc1 [Cmpd 838, Robenidine hydrochloride]",++

row,Compound,Compound Myofibroblast Cytotoxicity Activity
1,"COCCCN1CCC(NC(=O)c2cc(Cl)c(N)c3c2OCC3)CC1 [Cmpd 806, Prucalopride]",+++
2,"CCOC(=O)C1=C(COCCN)NC(C)=C(C(=O)OC)[C@@H]1c1ccccc1Cl [Cmpd 580, Levamlodipine]",+++++
3,"CC1=NN(c2ccc(C)c(C)c2)C(=O)/C1=N\Nc1cccc(-c2cccc(C(=O)O)c2)c1O [Cmpd 410, Eltrombopag]",++
4,"Cl.OC(c1cc(C(F)(F)F)nc2c(C(F)(F)F)cccc12)C1CCCCN1 (stereo not drawn) [Cmpd 644, Mefloquine hydrochloride]",++++
5,"CNC1CCCN(c2c(F)cc3c(=O)c(C(=O)O)cn(C4CC4)c3c2OC)C1 (stereo not drawn) [Cmpd 154, Balofloxacin Dihydrate]",++
6,"CNCCC=C1c2ccccc2CCc2ccccc21 [Cmpd 723, Nortriptyline (hydrochloride)]",++
7,"Nc1c2c(nc3ccccc13)CCCC2 [Cmpd 906, Tacrine hydrochloride]",++++
8,"CC(=O)CCCCn1c(=O)c2c(ncn2C)n(C)c1=O [Cmpd 769, Pentoxifylline]",++++
9,"CCC/C=C1\OC(=O)C2=C1CCC=C2 [Cmpd 2, Z-Ligustilide]",++
10,"COc1cc([C@@H]2c3cc4c(cc3[C@@H](O[C@@H]3O[C@@H]5CO[C@@H](c6cccs6)O[C@H]5[C@H](O)[C@H]3O)[C@H]3COC(=O)[C@H]23)OCO4)cc(OC)c1O [Cmpd 925, Teniposide]",++
11,"CCN1CCN(Cc2ccc(Nc3ncc(F)c(-c4cc(F)c5nc(C)n(C(C)C)c5c4)n3)nc2)CC1 [Cmpd 622, LY2835219 free base]",++++
12,"CC[C@H]1OC(=O)[C@H](C)[C@@H](O[C@H]2C[C@@](C)(OC)[C@@H](O)[C@H](C)O2)[C@H](C)[C@@H](O[C@@H]2O[C@H](C)C[C@H](N(C)C)[C@H]2O)[C@](C)(OC)C[C@@H](C)C(=O)[C@H](C)[C@@H](O)[C@]1(C)O [Cmpd 274, Clarithromycin]",+++
13,"CCN1CCN(c2cc(-c3ccc(F)cc3)c3c(n2)CCCCCC3)CC1 [Cmpd 187, Blonanserin]",+++
14,"C[n+]1ccccc1/C=N/O [Cmpd 792, Pralidoxime Iodide]",++
15,"N=c1nc(N2CCCCC2)cc(N)n1OS(=O)(=O)O [Cmpd 678, Minoxidil sulphate]",++
16,"O=C1O[C@H](CO)[C@@H](O)[C@H](O)[C@H]1O [Cmpd 338, delta-Gluconolactone]",++
17,"Nc1nc(=O)c2c([nH]1)NCC(CNc1ccc(C(=O)N[C@@H](CCC(=O)[O-])C(=O)[O-])cc1)N2C=O.[Ca+2] (stereo partly drawn) [Cmpd 468, Folinic Acid (calcium salt)]",+++
18,"C[Si]1(C)O[Si](C)(C)O[Si](C)(C)O1 [Cmpd 505, Hexamethylcyclotrisiloxane]",+
19,"CC[N+](C)(C)c1cccc(O)c1.[Cl-] [Cmpd 406, Edrophonium (chloride)]",+++

row,Compound,Compound Myofibroblast Cytotoxicity Activity
1,"Cc1[nH]cnc1CN1CCc2c(c3ccccc3n2C)C1=O.Cl [Cmpd 101, Alosetron Hydrochloride]",++++
2,"Clc1ccc(CCC(Cn2ccnc2)Sc2c(Cl)cccc2Cl)cc1 (stereo not drawn) [Cmpd 198, Butoconazole nitrate]",+++
3,"COc1cc(C(=O)NCc2ccc(OCCN(C)C)cc2)cc(OC)c1OC.Cl [Cmpd 974, Trimethobenzamide hydrochloride]",++
4,"Cc1coc2c1C(=O)C(=O)c1c-2ccc2c(C)cccc12 [Cmpd 912, Tanshinone I]",+++++
5,"C=C1CC[C@H](O)C/C1=C/C=C1\CCC[C@]2(C)[C@@H]([C@H](C)CCCC(C)(C)O)CC[C@@H]12 [Cmpd 202, Calcifediol]",+++
6,"CC(C)(C)C(=O)Oc1ccc(S(=O)(=O)Nc2ccccc2C(=O)NCC(=O)O)cc1 [Cmpd 866, Sivelestat (ONO-5046)]",++
7,"C/C=C/c1ccc(OC)cc1 [Cmpd 963, Trans-Anethole]",++
8,"CC(C)(C)NCC(O)COc1cccc2c1CCC(=O)N2 (stereo not drawn) [Cmpd 219, Carteolol HCl]",++
9,"C/C1=C2/[N-][C@H]([C@H](CC(N)=O)[C@@]2(C)CCC(=O)NC[C@@H](C)OP(=O)([O-])O[C@H]2[C@@H](O)[C@@H](n3cnc4cc(C)c(C)cc43)O[C@@H]2CO)[C@]2(C)N=C(/C(C)=C3N=C(/C=C4N=C1[C@@H](CCC(N)=O)C\4(C)C)[C@@H](CCC(N)=O)[C@]\3(C)CC(N)=O)[C@@H](CCC(N)=O)[C@]2(C)CC(N)=O.[CH3-].[Co+3] [Cmpd 662, Methylcobalamin]",++
10,"CCCCCCCCCCCCN1CCCCCC1=O [Cmpd 565, Laurocapram]",+++++
11,"OC(CCCN1CCCCC1)(c1ccccc1)c1ccccc1 [Cmpd 365, Diphenidol HCl]",++++
12,"NCCc1ccc(O)cc1 [Cmpd 981, Tyramine]",++
13,"CCCOc1ccc2c(c1)CC[C@@H]1[C@@H]2CC[C@]2(C)[C@@H](OC)CC[C@@H]12 [Cmpd 800, Promestriene]",++
14,"c1ccc(-c2ccc(C(c3ccccc3)n3ccnc3)cc2)cc1 (stereo not drawn) [Cmpd 182, Bifonazole]",+++
15,"CC(C)NCC(O)c1ccc(NS(C)(=O)=O)cc1 (stereo not drawn) [Cmpd 883, Sotalol hydrochloride]",+++
16,"CCCCCCCCCCCCCCCCCC(=O)O [Cmpd 889, Stearic Acid]",+++
17,"O=C1/C(=C2\Nc3ccc(S(=O)(=O)[O-])cc3C2=O)Nc2ccc(S(=O)(=O)[O-])cc21.[Na+].[Na+] [Cmpd 528, Indigo carmine]",++
18,"CC1=CC[C@@H]2C[C@H]1C2(C)C [Cmpd 19, (1R)-(+)-α-Pinene]",+
19,"CCCc1nc(C)c2c(=O)[nH]c(-c3cc(S(=O)(=O)N4CCN(CC)CC4)ccc3OCC)nn12 [Cmpd 996, Vardenafil]",++++
